Results reported in US20220218778A1, “COMPOSITION FOR REDUCING BODY FAT COMPRISING GREEN TEA EXTRACT CONTAINING GALLOCATECHIN GALLATE AS AN ACTIVE INGREDIENT AND MANUFACTURING METHOD THEREOF” (AMOREPACIFIC CORPORATION, priority 2021, published 2022).

How the values were obtained:
Assay type in all cases: cell-based, Mouse
3T3-L1 adipocytes [1] = test: Triglyceride degradation in adipocytes (glycerol quantification); details: FIG. 9; HTGT 10, 50 or 100 μg/mL, IBMX 500 μM; 4 hours
3T3-L1 adipocytes [2] = test: Oxygen consumption rate (XF analyzer) in adipocytes; details: FIG. 18; 20 μM GCG, 24 hours; with oligomycin, FCCP, rotenone/antimycin A; normalized to protein
Procedure: Mouse-derived 3T3-L1 adipocytes (American Type Culture Collection, ATCC) were cultured in an incubator using DMEM (Dulbecco's modified Eagle's medium; Sigma-Aldrich) containing 10% bovine calf serum (BCS; HyClone) and 1% penicillin/streptomycin (P/S; Sigma-Aldrich) under a standard condition (37° C., 5% CO2). For cellular differentiation, 48 hours after the cells were filled 100% on a plate, they were cultured again for 48 hours after replacing the medium with DMEM supplemented with 10% fetal bovine serum (FBS; Hyclone), 1% P/S, 0.5 mM 3-isobutyl-1-methylxanthine (IBMX; Sigma-Aldrich), 1 μM dexamethasone (Sigma-Aldrich) and 5 μg/mL insulin (Sigma-Aldrich). Then, differentiation of adipocytes was induced by culturing the cells additionally for 10 days while replacing the medium with a medium supplemented with 10% FBS, 5 μg/mL insulin and 1% P/S at two-day intervals.
The adipocytes differentiated as in Reference Example 1 were treated with 20 μM gallocatechin gallate (GCG), which is contained in large quantities particularly in the heat-transformed green tea extract (HTGT) (Table 2), for 24 hours. A negative control group was treated with a vehicle (distilled water).
Then, oxygen level and oxygen consumption rate (OCR) were measured using an XF analyzer (Agilent, Santa Clara, Calif., USA). […]

[3] = test system: brown adipocyte-associated markers (Ucp1, Cidea, Cox8b, Dio2, Elovl3, Pgc1a, Prdm16); test: Brown adipocyte-associated marker gene expression (qPCR) in adipocytes; details: FIG. 14; GCG 0.1, 1, 5, 10 or 20 μM; 24 hours
Text: After extracting RNA using Trizol™ reagent (Thermo Fisher Scientific), cDNA was synthesized using a RevertAid™ 1st strand cDNA synthesis kit (Thermo Fisher Scientific). Then, the expression level of target genes was quantified by CFX96 real-time quantitative PCR (qPCR; Bio-Rad) using a housekeeping gene (cyclophilin).

SMILES | degradation of triglycerides in adipocytes (glycerol produced) (3T3-L1 adipocytes [1]) | oxygen consumption rate (OCR) (3T3-L1 adipocytes [2]) | expression of Elovl3 [3] | expression of Prdm16 [3] | expression of uncoupling protein 1 (Ucp1) [3]
CC(C)Cn1c(=O)n(C)c(=O)c2[nH]cnc21 [IBMX, 3-isobutyl-1-methylxanthine] | facilitating the degradation of triglycerides in adipocytes | – | – | – | –
O=C(O[C@@H]1Cc2c(O)cc(O)cc2O[C@H]1c1cc(O)c(O)c(O)c1)c1cc(O)c(O)c(O)c1 [GCG, gallocatechin gallate] | – | increased OCR | increased the expression of the fat degradation-associated Elovl3 | not changed significantly | increased the expression
